Data taken from patent publication US6395732B1, “Pyrimidin-aminomethyl-pyridine derivatives, their preparation and their use in the control of helicobacter bacteria” (BYK Gulden Lomberg Chemische Fabrik GmbH, priority 1998, dated 2002).

How the values were obtained:
Helicobacter pylori = experiment: Activity against Helicobacter pylori, agar method of Iwahi et al. (MIC 50); assay type: cell-based; settings: Helicobacter pylori, 96 h; Columbia agar (Oxoid), growth period of 4 days; approximate values; read-out: Appr. MIC 50
Excerpt: The compounds of the formula I were investigated with respect to their activity against Helicobacter pylori following the method described by Tomoyuki Iwahi et al. (Antimicrobial Agents and Chemotherapy, 1991, 490-496) using Columbia agar (Oxoid) and a growth period of 4 days.

Structure (SMILES) | melting point | MIC50 (Helicobacter pylori)
Cc1nc(C)c(Cl)c(NCc2nccc(SCCCCSCc3ccncc3)c2C)n1 [Compound 20, (5-Chloro-2,6-dimethylpyrimidin-4-yl)-{3-methyl-4-[4-(pyridin-4-ylmethylsulfanyl)butylsulfanyl]pyridin-2-ylmethyl}amine] | 104 to 106 °C | ≤ 0.1 mg/L
Cc1c(SCCCN2CCN(Cc3ccncc3)CC2)ccnc1CNc1ncncc1Cl [Compound 45, (5-Chloro-pyrimidin-4-yl)-{3-methyl-4-[3-(4-pyridin-4-ylmethyl-piperazin-1-yl)-propylsulfanyl]-pyridin-2-ylmethyl}-amine] | 149 to 151 °C | ≤ 0.1 mg/L
Cc1nc(C)c(Cl)c(NCc2nccc(SCCCCN3CCNCC3)c2C)n1 [Compound 17, (5-Chloro-2,6-dimethylpyrimidin-4-yl)-[3-methyl-4-(4-piperazin-1-ylbutylsulfanyl)pyridin-2-ylmethyl]amine] | 143 to 145 °C | ≤ 0.1 mg/L
Cc1nc(C)c(Cl)c(NCc2nccc(SCc3ccco3)c2C)n1 [Compound 60, (5-Chloro-2,6-dimethyl-pyrimidin-4-yl)-[4-(furan-2-ylmethylsulfanyl)-3-methyl-pyridin-2-ylmethyl]-amine] | 159 to 160 °C | ≤ 0.1 mg/L
Cc1nc(C)c(Cl)c(NCc2nccc(OCCCCSCc3ccccn3)c2C)n1 [Compound 51, (5-Chloro-2,6-dimethyl-pyrimidin-4-yl)-{3-methyl-4-[4-(pyridin-2-ylmethylsulfanyl)-butoxy]-pyridin-2-ylmethyl}-amine] | 113 to 114 °C | ≤ 0.1 mg/L
Cc1nc(C)c(Cl)c(NCc2nccc(OCCCCSCCn3c([N+](=O)[O-])cnc3C)c2C)n1 [Compound 16, (5-Chloro-2,6-dimethylpyrimidin-4-yl)-(3-methyl-4-{4-[2-(2-methyl-5-nitroimidazol-1-yl)-ethylsulfanyl]butoxy}pyridin-2-ylmethyl]amine] | 114 to 117 °C | ≤ 0.1 mg/L
Cc1c(SCCCSCCn2c([N+](=O)[O-])cnc2C)ccnc1CNc1ncncc1Cl [Compound 9, (5-Chloropyrimidin-4-yl)-(3-methyl-4-{3-[2-(2-methyl-5-nitroimidazol-1-yl)ethylsulfanyl]propylsulfanyl}-pyridin-2-ylmethyl)amine] | 119 to 121 °C | ≤ 0.1 mg/L
Cc1nc(C)c(Cl)c(NCc2nccc(OCCOCCSCc3ccncc3)c2C)n1 [Compound 29, (5-Chloro-2,6-dimethyl-pyrimidin-4-yl)-(3-methyl-4-{2-[2-(pyridin-4-ylmethylsulfanyl)-ethoxy]-ethoxy}-pyridin-2-ylmethyl)-amine] | 103 to 105 °C | ≤ 0.1 mg/L
Cc1c(OCCCSCCn2c([N+](=O)[O-])cnc2C)ccnc1CNc1ncncc1Cl [Compound 56, (5-Chloro-pyrimidin-4-yl)-(3-methyl-4-{3-[2-(2-methyl-5-nitro-imidazol-1-yl)-ethylsulfanyl]-propoxy}-pyridin-2-ylmethyl)-amine] | 143 to 146 °C | ≤ 0.1 mg/L
Cc1nc(C)c(Cl)c(NCc2nccc(SCCCSCC3CCCN(C)C3)c2C)n1 (centres unmarked) [Compound 22, (5-Chloro-2,6-dimethylpyrimidin-4-yl)-{3-methyl-4-[3-(1-methylpiperidin-3-ylmethylsulfanyl)propylsulfanyl]pyridin-2-ylmethyl}amine] | 92 to 94 °C | ≤ 0.1 mg/L
Cc1nc(C)c(Cl)c(NCc2nccc(SCCOCCn3c([N+](=O)[O-])cnc3C)c2C)n1 [Compound 57, (5-Chloro-2,6-dimethyl-pyrimidin-4-yl)-(3-methyl-4-{2-[2-(2-methyl-5-nitro-imidazol-1-yl)-ethoxy]-ethylsulfanyl}-pyridin-2-ylmethyl)-amine] | 160 to 163 °C | ≤ 0.1 mg/L
Cc1nc(C)c(Cl)c(NCc2nccc(OCCOCCSCCn3c([N+](=O)[O-])cnc3C)c2C)n1 [Compound 28, (5-Chloro-2,6-dimethyl-pyrimidin-4-yl)-[3-methyl-4-(2-{2-[2-(2-methyl-5nitro-imidazol-1-yl)ethylsulfanyl]-ethoxy}-ethoxy)-pyridin-2-ylmethyl]-amine] | 102 to 105 °C | ≤ 0.1 mg/L
Cc1c(OCCSCc2ccco2)ccnc1CNc1ncncc1Cl [Compound 58, (5-Chloro-pyrimidin-4-yl)-{4-[2-(furan-2-ylmethylsulfanyl)-ethoxy]-3-methyl-pyridin-2-ylmethyl}-amine] | 129 to 130 °C | ≤ 0.1 mg/L
